Data on eleven compounds can be found in patent US6534325B1, “Immunoassay for the detection of amphetamines, methamphetamines and methylenedioxy designer amphetamines” (priority 2000, dated 2003).

SMILES strings stand for the structures. Read-outs that look alike come from different tables or passages of the source.

The subject of assay [1] is amphetamine and methamphetamine monoclonal antibodies (mouse). Briefly: Roche Hitachi AMP/MDMA immunoassay with MDA calibrator, cross-reactivity. Particulars: cutoff 300 ng/ml, HITACHI 717 analyzer.
Assay [2] has as its system amphetamine antibody and methamphetamine antibody. The settings on record: cutoff 500 ng/ml, currently marketed assay, cited from earlier work.
Assay [3] has the same test system. Particulars: cutoff 500 ng/ml, currently marketed assay, cited from earlier work. This is another data set of the same source.
Assay [4] relates to amphetamine and methamphetamine monoclonal antibodies (mouse). Briefly: Roche Hitachi AMP/MDMA immunoassay (method of the invention, MDMA calibrator), cross-reactivity. The settings on record: cutoff 300 ng/ml, MDMA calibrator, HITACHI 917 analyzer.
The subject of assay [5] is amphetamine antibody and methamphetamine antibody. The settings on record: cutoff 1000 ng/ml, currently marketed assay, cited from earlier work.
The test system is the same in assay [6]. The settings on record: cutoff 1000 ng/ml, currently marketed assay, cited from earlier work. This is another data set of the same source.

As for `CC(N)C(O)c1ccccc1` (stereo not drawn) [l-PPA, phenylpropanolamine], in assay [1], the “Cross-reactivity, Roche Hitachi AMP/MDMA, MDA used as calibrator” value was determined as 6.2%. Also, the “Cross-reactivity, Roche Hitachi AMP” value in assay [2] is 1.5%. In addition, the “Cross-reactivity, Roche Integra AMPSC” value in assay [3] is 1.1%. Moreover, the “Cross-reactivity, Roche Hitachi AMP/MDMA” value in assay [4] was determined as 0.6%.
As for `CC(N)Cc1ccc2c(c1)OCO2` (racemic) [MDA, (±)-3,4-methylenedioxyamphetamine], the “Cross-reactivity, Roche Hitachi AMP/MDMA, MDA used as calibrator” value in assay [1] is 100.0%. Also, the “Cross-reactivity, Roche Hitachi AMP” value in assay [2] is recorded as 35.5%. The “Cross-reactivity, Roche Integra AMPSC” value in assay [3] was 40%. Also, the “Cross-reactivity, Roche Hitachi AMP/MDMA” value in assay [4] turned out to be 25.0%. For the same compound, the “Cross-reactivity, CEDIA DAU AMP” value in assay [5] is given as 1.9%. Besides, in assay [6], the “Cross-reactivity, Abbott TDX AMP/methAMP” value is given as 148%.
Take `CCC(Cc1ccc2c(c1)OCO2)NC` (racemic) [MBDB, (±)-N-methyl-1-(3,4-methylenedioxyphenyl)-2-butanamine]: the “Cross-reactivity, Roche Hitachi AMP/MDMA” value in assay [4] worked out at 70.0%.
Regarding `CN[C@@H](C)Cc1ccccc1` [d-MAMP, methamphetamine], the “Cross-reactivity, Roche Hitachi AMP/MDMA, MDA used as calibrator” value in assay [1] is reported as 269.0%. Besides, in assay [2], the “Cross-reactivity, Roche Hitachi AMP” value is listed as 82.2%. The “Cross-reactivity, Roche Integra AMPSC” value in assay [3] is 12%. For the same compound, in assay [4], the “Cross-reactivity, Roche Hitachi AMP/MDMA” value turned out to be 300.0%. Also, in assay [5], the “Cross-reactivity, CEDIA DAU AMP” value is 100%. Moreover, in assay [6], the “Cross-reactivity, Abbott TDX AMP/methAMP” value is listed as 97.8%.
Turning to `CNC(C)Cc1ccc2c(c1)OCO2` (racemic) [MDMA, (±)-3,4 methylenedioxymethamphetamine], the “Cross-reactivity, Roche Hitachi AMP/MDMA, MDA used as calibrator” value in assay [1] is recorded as 81.0%. Also, the “Cross-reactivity, Roche Hitachi AMP” value in assay [2] is given as 36%. Besides, in assay [3], the “Cross-reactivity, Roche Integra AMPSC” value was 79%. For the same compound, the “Cross-reactivity, Roche Hitachi AMP/MDMA” value in assay [4] is listed as 100.0%. Also, the “Cross-reactivity, CEDIA DAU AMP” value in assay [5] is recorded as 69%. Further, in assay [6], the “Cross-reactivity, Abbott TDX AMP/methAMP” value is listed as 97%.
With `CN[C@@H](C)[C@H](O)c1ccccc1` (racemic) [dl-ephedrine, ephedrine], the “Cross-reactivity, Roche Hitachi AMP/MDMA, MDA used as calibrator” value in assay [1] came to 0.34%. The “Cross-reactivity, Roche Hitachi AMP” value in assay [2] is on record as less than 0.1%. Further, the “Cross-reactivity, Roche Integra AMPSC” value in assay [3] is on record as less than 0.1%. The “Cross-reactivity, Roche Hitachi AMP/MDMA” value in assay [4] was less than 0.3%. The “Cross-reactivity, CEDIA DAU AMP” value in assay [5] is 0.4%.
As for `CC(N)Cc1ccccc1` (stereo not drawn) [l-AMP, amphetamine], in assay [1], the “Cross-reactivity, Roche Hitachi AMP/MDMA, MDA used as calibrator” value worked out at 15.2%. Moreover, the “Cross-reactivity, Roche Hitachi AMP” value in assay [2] (listed as 1-AMP) is reported as 6%. Moreover, the “Cross-reactivity, Roche Integra AMPSC” value in assay [3] (listed as 1-AMP) is 4.2%. Besides, in assay [4] (listed as 1-AMP), the “Cross-reactivity, Roche Hitachi AMP/MDMA” value is listed as 3.8%. In addition, the “Cross-reactivity, CEDIA DAU AMP” value in assay [5] (listed as 1-AMP) is 3.0%. In assay [6] (listed as 1-AMP), the “Cross-reactivity, Abbott TDX AMP/methAMP” value was 56.9%.
As for `CNC(C)Cc1ccc(O)c(OC)c1` (stereo not drawn) [HMMA, 4-hydroxy-3-methoxymethamphetamine], the “Cross-reactivity, Roche Hitachi AMP/MDMA” value in assay [4] is reported as less than 0.3%.
Regarding `CC(N)Cc1ccccc1` (stereo not drawn) [d-AMP, amphetamine], in assay [1], the “Cross-reactivity, Roche Hitachi AMP/MDMA, MDA used as calibrator” value is 319.0%. In assay [2], the “Cross-reactivity, Roche Hitachi AMP” value is listed as 100%. The “Cross-reactivity, Roche Integra AMPSC” value in assay [3] was 100%. Moreover, the “Cross-reactivity, Roche Hitachi AMP/MDMA” value in assay [4] is recorded as 97.0%. Moreover, the “Cross-reactivity, CEDIA DAU AMP” value in assay [5] is on record as 101%. Also, in assay [6], the “Cross-reactivity, Abbott TDX AMP/methAMP” value is 100%.
As to `CN[C@@H](C)Cc1ccccc1` [l-MAMP, methamphetamine], the “Cross-reactivity, Roche Hitachi AMP/MDMA, MDA used as calibrator” value in assay [1] amounted to 24.7%. In addition, the “Cross-reactivity, Roche Hitachi AMP” value in assay [2] (listed as 1-MAMP) is 0.8%. Further, the “Cross-reactivity, Roche Integra AMPSC” value in assay [3] is 12%. For the same compound, the “Cross-reactivity, Roche Hitachi AMP/MDMA” value in assay [4] (listed as 1-MAMP) was determined as 18%. In assay [5] (listed as 1-MAMP), the “Cross-reactivity, CEDIA DAU AMP” value is given as 12%. The “Cross-reactivity, Abbott TDX AMP/methAMP” value in assay [6] (listed as 1-MAMP) is 7.2%.
In the case of `CCC(N)Cc1ccc2c(c1)OCO2` (racemic) [BDB, (±)-(3,4-methylenedioxyphenyl)-2-butanamine], the “Cross-reactivity, Roche Hitachi AMP/MDMA” value in assay [4] was determined as 4.7%.
